Measured values taken from patent publication US20260008862A1, “Bispecific Anti-BCMA x Anti-CD3 Antibodies and Uses Thereof” (Regeneron Pharmaceuticals, Inc., priority 2018, published 2026).

Tests used:
[1] = tested on: Jurkat/NFATLuc.3C7 cells + RPMI-8226 cells; test: Jurkat/NFATLuc reporter bioassay with RPMI-8226 cells; type: cell-based; details: highest RLU / lowest RLU
Experimental: Activity of the anti-BCMA×anti-CD3 bispecific antibodies were assessed in a Jurkat/NFATLuc reporter bioassay utilizing several cell lines with varying levels of BCMA surface expression. The Jurkat cells were engineered to express an NFAT-luciferase reporter (Jurkat/NFATLuc.3C7), and 50,000 Jurkat reporter cells were combined with 50,000 BCMA positive (Daudi, MM1-S, NCI-H929, OPM-2, RPMI-8226, MOLP-8, or Raji) or BCMA negative (HEK293) cells in Thermo Nunclon delta 96 well white microwell plates (Thermo Scientific, Cat #136102) in 50 ul of assay media (RPMI media with 10% FBS and 1% P/S/G). Three-fold serial dilutions of the BCMA×CD3 bispecific antibodies (mAb25441 D or mAb25442D), or a bivalent anti-BCMA antibody (mAb21581) were immediately added in 50 μL of assay buffer. The plates were gently agitated and incubated in a 37° C., 5% CO2 incubator for 4-6 hours. NFAT-Luciferase activity was determined using Promega One-Glo (Cat #E6130) and a Perkin Elmer Envision plate reader. RLU were plotted in GraphPad Prism using a four-parameter logistic equation over a 12-point response curve to calculate EC50 values. […] The signal to noise (S:N) is determined by taking the ratio of the highest RLU on the curve to the lowest.

[2] = tested on: BCMA-expressing NCI-H929 tumors; test: NCI-H929 + PBMC xenogenic tumor model, immediate treatment, 4 mg/kg (Example 10); type: in vivo, mouse
Experimental: To determine the in vivo efficacy of BCMA×CD3 bispecific antibodies (Abs), a xenogenic tumor study was performed. Immunodeficient NOD.Cg-Prkdc^scidIl2rg^tm1Wji/SzJ (NSG) mice were subcutaneously implanted with a mixture of 10×10^6 BCMA-expressing NCI-H929 multiple myeloma cells and 0.5×10^6 human peripheral blood mononuclear cells (PBMC) isolated from a normal donor. […] The mice were administered Abs twice per week for a total of three weeks, and tumor growth was assessed over 40 days. While BCMA^+ tumors grew similarly in the vehicle-, isotype control-, and CD3-binding control-treated mice, both BCMA×CD3 Abs that were tested prevented the growth of tumors in vivo.
Implantation and measurement of syngeneic tumors: NSG mice were subcutaneously implanted with a mixture of 10×10^6 BCMA-expressing NCI-H929 multiple myeloma cells and 0.5×10^6 PBMC derived from a normal donor. […] The mice were administered Abs twice per week for a total of three weeks. Tumor growth was measured with calipers twice per week for the duration of the experiment. Mice were sacrificed 40 days after tumor implantation.
(§1) Calculation of syngeneic tumor growth and inhibition: In order to determine tumor volume by external caliper, the greatest longitudinal diameter (length in mm) and the greatest transverse diameter (width in mm) were determined. Tumor volumes based on caliper measurements were calculated by the formula: Volume (mm^3)=(length×width^2)/2.

[3] = tested on: established BCMA-expressing NCI-H929 tumors; test: Established NCI-H929 + PBMC xenogenic tumor model, treatment from day 5 (Example 12); type: in vivo, mouse; details: for Average Tumor Size (mm3) ± SEM on Day 5: Day 5 (day of first dose)
Experimental: To determine the in vivo efficacy of anti-BCMA×anti-CD3 bispecific antibodies (Abs), a xenogenic tumor study was performed. Immunodeficient NOD.Cg-Prkdc^scidIl2rg^tm1Wji/SzJ (NSG) mice were subcutaneously implanted with a mixture of 10×10^6 BCMA-expressing NCI-H929 human multiple myeloma tumor cells and 0.5×10^6 human peripheral blood mononuclear cells (PBMC) isolated from a normal, healthy donor. The tumors were allowed to grow and establish for 5 days until they were approximately 70 mm^3 in size. […] The mice were administered these Abs twice per week for a total of seven doses, and tumor growth was assessed over 55 days. While BCMA^+ NCI-H929 tumors grew similarly in the vehicle- and CD3-binding control-treated mice, both BCMA×CD3 Abs that were tested shrank established tumors and prevented the growth of tumors in a dose-dependent manner in vivo.
Implantation and measurement of xenogenic tumors: NSG mice were subcutaneously implanted with a mixture of 10×10^6 BCMA-expressing NCI-H929 multiple myeloma cells and 0.5×10^6 PBMC derived from a normal, healthy donor. The tumors were allowed to grow and establish for 5 days until they were approximately 70 mm^3 in size. […] The mice were administered Abs twice per week for a total of seven doses. Tumor growth was measured with calipers twice per week for the duration of the experiment.
as §1, with “xenogenic” for “syngeneic”, “(mm^3) […] (length×width^2)/2.” for “(mm^3)=(length×width^2)/2.”

| Substance | S:N [1] | Average Tumor Size (mm3) ± SEM on Day 4 [2] [mm3] | Average Tumor Size (mm3) ± SEM on Day 7 [2] [mm3] | Average Tumor Size (mm3) ± SEM on Day 11 [2] [mm3] | Average Tumor Size (mm3) ± SEM on Day 14 [2] [mm3] | Average Tumor Size (mm3) ± SEM on Day 18 [2] [mm3] | Average Tumor Size (mm3) ± SEM on Day 21 [2] [mm3] | Average Tumor Size (mm3) ± SEM on Day 28 [2] [mm3] | Average Tumor Size (mm3) ± SEM on Day 40 [2] [mm3] | Average Tumor Size (mm3) ± SEM on Day 5 ([3]; 0.04 mg/kg) [mm3] | Average Tumor Size (mm3) ± SEM on Day 8 ([3]; 0.04 mg/kg) [mm3] | Average Tumor Size (mm3) ± SEM on Day 12 ([3]; 0.04 mg/kg) [mm3] | Average Tumor Size (mm3) ± SEM on Day 15 ([3]; 0.04 mg/kg) [mm3] | Average Tumor Size (mm3) ± SEM on Day 19 ([3]; 0.04 mg/kg) [mm3] | Average Tumor Size (mm3) ± SEM on Day 22 ([3]; 0.04 mg/kg) [mm3] | Average Tumor Size (mm3) ± SEM on Day 5 ([3]; 0.4 mg/kg) [mm3] | Average Tumor Size (mm3) ± SEM on Day 8 ([3]; 0.4 mg/kg) [mm3] | Average Tumor Size (mm3) ± SEM on Day 12 ([3]; 0.4 mg/kg) [mm3] | Average Tumor Size (mm3) ± SEM on Day 15 ([3]; 0.4 mg/kg) [mm3] | Average Tumor Size (mm3) ± SEM on Day 19 ([3]; 0.4 mg/kg) [mm3] | other results |
| --- | --- | --- | --- | --- | --- | --- | --- | --- | --- | --- | --- | --- | --- | --- | --- | --- | --- | --- | --- | --- | --- |
| REGN5459: anti-BCMA×anti-CD3 bispecific antibody: BCMA HCVR of mAb21581 (SEQ 66), CD3 HCVR of mAb7221G20 (SEQ 98), common LCVR SEQ 82 | 42 | 26.5 ± 6.2 | 0 ± 0 | 0 ± 0 | 0 ± 0 | 0 ± 0 | 0 ± 0 | 0 ± 0 | 0 ± 0 | 74.9 ± 6.4 | 152.3 ± 20.0 | 462.5 ± 57.7 | 1094.2 ± 78.9 | 2412.5 ± 184.6 | 3285.9 ± 227.3 | 69.5 ± 4.1 | 171.9 ± 23.2 | 233.8 ± 63.5 | 327.2 ± 135.6 | 606.2 ± 288.8 | Average Tumor Size (mm3) ± SEM on Day 22 ([3]; 0.4 mg/kg): 815.4 ± 387.1 mm3; Average Tumor Size (mm3) ± SEM on Day 27 ([3]; 0.4 mg/kg): 1849.9 ± 903.1 mm3; Average Tumor Size (mm3) ± SEM on Day 30 ([3]; 0.4 mg/kg): 661.8 ± 490.1 mm3; Average Tumor Size (mm3) ± SEM on Day 35 ([3]; 0.4 mg/kg): 996.8 ± 771.0 mm3; Average Tumor Size (mm3) ± SEM on Day 40 ([3]; 0.4 mg/kg): 375.6 ± 375.6 mm3; Average Tumor Size (mm3) ± SEM on Day 55 ([3]; 0.4 mg/kg): 0 ± 0 mm3; Average Tumor Size (mm3) ± SEM on Day 5 ([3]; 4 mg/kg): 61.8 ± 5.2 mm3; Average Tumor Size (mm3) ± SEM on Day 8 ([3]; 4 mg/kg): 45.8 ± 9.8 mm3; Average Tumor Size (mm3) ± SEM on Day 15 ([3]; 4 mg/kg): 0 ± 0 mm3; Average Tumor Size (mm3) ± SEM on Day 19 ([3]; 4 mg/kg): 0 ± 0 mm3; Average Tumor Size (mm3) ± SEM on Day 22 ([3]; 4 mg/kg): 0 ± 0 mm3; Average Tumor Size (mm3) ± SEM on Day 27 ([3]; 4 mg/kg): 0 ± 0 mm3; Average Tumor Size (mm3) ± SEM on Day 30 ([3]; 4 mg/kg): 0 ± 0 mm3; Average Tumor Size (mm3) ± SEM on Day 35 ([3]; 4 mg/kg): 0 ± 0 mm3; Average Tumor Size (mm3) ± SEM on Day 40 ([3]; 4 mg/kg): 0 ± 0 mm3; Average Tumor Size (mm3) ± SEM on Day 55 ([3]; 4 mg/kg): 0 ± 0 mm3 |
| REGN5458: anti-BCMA×anti-CD3 bispecific antibody: BCMA HCVR of mAb21581 (SEQ 66), CD3 HCVR of mAb7221G (SEQ 90), common LCVR SEQ 82 | 55 | 39.5 ± 9.1 | 0 ± 0 | 0 ± 0 | 0 ± 0 | 0 ± 0 | 0 ± 0 | 0 ± 0 | 0 ± 0 | 58.1 ± 5.6 | 130.3 ± 16.7 | 525.9 ± 71.5 | 1031.2 ± 164.3 | 2467.5 ± 370.0 | 3745.7 ± 541.2 | 69.3 ± 7.3 | 120.3 ± 16.3 | 262.7 ± 61.6 | 476.2 ± 133.5 | 1347.5 ± 334.7 | Average Tumor Size (mm3) ± SEM on Day 27 ([3]; 0.04 mg/kg): 1589.1 ± 0 mm3; Average Tumor Size (mm3) ± SEM on Day 30 ([3]; 0.04 mg/kg): 2886.5 ± 0 mm3; Average Tumor Size (mm3) ± SEM on Day 22 ([3]; 0.4 mg/kg): 2068.5 ± 465.0 mm3; Average Tumor Size (mm3) ± SEM on Day 27 ([3]; 0.4 mg/kg): 3463.9 ± 1025.0 mm3; Average Tumor Size (mm3) ± SEM on Day 30 ([3]; 0.4 mg/kg): 2144.2 ± 2144.2 mm3; Average Tumor Size (mm3) ± SEM on Day 35 ([3]; 0.4 mg/kg): 0 ± 0 mm3; Average Tumor Size (mm3) ± SEM on Day 40 ([3]; 0.4 mg/kg): 0 ± 0 mm3; Average Tumor Size (mm3) ± SEM on Day 55 ([3]; 0.4 mg/kg): 0 ± 0 mm3; Average Tumor Size (mm3) ± SEM on Day 5 ([3]; 4 mg/kg): 71.9 ± 10.3 mm3; Average Tumor Size (mm3) ± SEM on Day 8 ([3]; 4 mg/kg): 64.7 ± 16.4 mm3; Average Tumor Size (mm3) ± SEM on Day 12 ([3]; 4 mg/kg): 19.5 ± 10.9 mm3; Average Tumor Size (mm3) ± SEM on Day 15 ([3]; 4 mg/kg): 25.6 ± 19.2 mm3; Average Tumor Size (mm3) ± SEM on Day 19 ([3]; 4 mg/kg): 40.6 ± 32.8 mm3; Average Tumor Size (mm3) ± SEM on Day 22 ([3]; 4 mg/kg): 78.3 ± 60.8 mm3; Average Tumor Size (mm3) ± SEM on Day 27 ([3]; 4 mg/kg): 252.3 ± 185.1 mm3; Average Tumor Size (mm3) ± SEM on Day 30 ([3]; 4 mg/kg): 411.3 ± 307.2 mm3; Average Tumor Size (mm3) ± SEM on Day 35 ([3]; 4 mg/kg): 633.5 ± 473.5 mm3; Average Tumor Size (mm3) ± SEM on Day 40 ([3]; 4 mg/kg): 369.5 ± 369.5 mm3; Average Tumor Size (mm3) ± SEM on Day 55 ([3]; 4 mg/kg): 0 ± 0 mm3 |
